Reference: patent US12415830B2, “Steroid compound, and use thereof and preparation method therefor” (Chengdu Kanghong Pharmaceutical Co Ltd, priority 2019, dated 2025)
Like-named read-outs stand apart in the source and are kept apart here.

How the values were obtained:
[1] = test system: mice; experiment: Observation of side effects (gait, mobility, prone behavior) during administration in the elevated plus maze experiment; type: in vivo; parameters: key to Gait, Level / mobility, Level / prone behavior, Level: “+” indicates severity; ++: “+” indicates severity; +++: three “+” are the most severe, with time to resume normal action >60 minutes; conditions: for side effects compared to the positive drug: 3 mg/kg, mice; for Gait, Number / mobility, Number / prone behavior, Number: 10 mice per group
Procedure: Since the drugs which are acting on GABA (A) receptor can produce behavioral anesthesia (side effects), side effects of mice during administration were observed during the course of the elevated plus maze experiment. […] “+” indicates severity, three “+” are the most severe, with time to resume normal action >60 minutes.

[2] = biological target: T1, GABAA4 (α4β3δ) receptor (Homo sapiens, UniProt P28472+P48169); experiment: Patch-clamp electrophysiology, compound alone or with 10 nM GABA (Table 3); type: cell-based; conditions: for Emax: relative to peak current in GABA only
T1 construct: expressed in transfected cells; host or cells: HEK293 (transient transfection, plasmids 1:1:1)
Procedure: The present invention applies the two subunits of the recombinant GABAA receptor: α1β2γ2 and α4β3δ to evaluate the potency of the exemplary compounds in vitro by patch-clamp electrophysiology.
Extracellular fluid: 140 mM NaCl, 5 mM CsCl, 2 mM CaCl2·2H2O, 1 mM MgCl2·6H2O, 5 mM HEPES, 10 mM D-Glucose, pH=7.4 (NaOH).
Intracellular fluid: 130 mM CsCl, 0.1 mM CaCl2·H2O, 2 mM MgCl2·6H2O, 1.1 mM EGTA, 5 mM Na2-ATP, 10 mM HEPES, pH=7.2 (CsOH).
HEK293 cell line was cultured in DMEM containing 10% fetal bovine serum and 5% carbon dioxide at 37° C.
Cell passage: The old medium was removed, and the cells were washed once with PBS. Then 1 mL 0.25%-Trypsin-EDTA solution was added to digest cells. The culture dish was incubated at 37° C. in pre-warmed incubator for 0.5 minutes. As soon as cells were detached, about 5 mL 37° C. pre-warmed complete medium was added. Cell aggregates were dissociated by gentle pipetting. The cell suspension was transferred into a sterile centrifuge tube and then the cell suspension was be spun at approximately 1000 rpm for 5 minutes. The cells were amplified or maintained by seeding 2.5×10^5 cells in a 6 cm dish (final medium volume: 5 mL). For transfection, 8×10^3 cells were plated onto coverslips, and cultured in a 24-well plate (final medium volume: […]).
Transfection: Second day, the transfection of GABAA4 (α4, β3, δ plasmid ratio 1:1:1) was performed. The X-tremeGENE HP DAN Transfection Reagents kit were used. The ratio of the plasmid and transfection reagent was 1 μg: 2 μL. The amount of plasmid in the 24-well plate was 0.5 μg per well, and the transfection reagent was 1 μL. The following specific steps were taken for preparing the 12 wells: The 600 μL Opti-MEM was added to a sterile centrifuge tube along with 6 μg of plasmid and was allowed to mix well; Then, the 12 μL of transfection reagent was added, mixed well following 15 min incubation at room temperature. The transfection complex was then inoculated into the cell, 50 μL per well, and the transfection complex was lightly stirred and mixed.
This mixture was changed on the third day, and the patch-clamp was performed on the fourth day.
Glass pipette (BF 150-86-10, Sutter Instruments) was pulled using a micropipette puller (P97, Sutter Instruments). The glass pipette was manipulated using a micro-manipulator (MP285, Sutter Instruments) under the microscope (IX71, Olympus). After touching the cell, a slight suction was applied to achieve high seal resistance (GQ). Fast capacitance (in pF) compensation was made after achieving high seal, and the membrane was broken. Cell capacitance (in pF) compensation was made from whole-cell capacitance compensation after the whole cell mode was achieved. No leak subtraction was made.
The test and control solutions flowed into a recording chamber mounted on the stage of an inverted microscope via a gravity-fed solution delivery system. During the experiment, solutions were withdrawn from the recording chamber by vacuum aspiration. Each concentration was tested at multiple times. All tests were performed at room temperature.
Whole cell model recorded GABAA4 receptors current experimental protocol was indicated as follows: When sealing, cell was at a holding potential of −70 mV, with gap-free mode to record the peak current. The cell would be applied with 10 nM GABA to active current. After the test articles application for 30 s, each concentration of test articles was applied with 10 nM GABA followed by 2 minutes washout using extracellular solution. Finally, 10 μM GABA was used as a positive control. The data were collected by EPC-10 amplifier and stored in PatchMaster (HEKA) software.
The following criteria are used to determine whether the data is acceptable: • (1) Electrode resistance <5MΩ • (2) Seal resistance >1GΩ • (3) The start of access resistance <15 MΩ • (4) The end of access resistance <15 MΩ • (5) No obvious spontaneous current decay. • (6) No obvious current leakage when the membrane potential is-70 mv. […]

[3] = with 10 nM GABA, read-out: EC50 (with 10 nM GABA)
[4] = with 10 nM GABA, read-out: Emax (with 10 nM GABA)
[5] = without GABA, read-out: Emax (without GABA)

T1 sequence (P48169 36-554): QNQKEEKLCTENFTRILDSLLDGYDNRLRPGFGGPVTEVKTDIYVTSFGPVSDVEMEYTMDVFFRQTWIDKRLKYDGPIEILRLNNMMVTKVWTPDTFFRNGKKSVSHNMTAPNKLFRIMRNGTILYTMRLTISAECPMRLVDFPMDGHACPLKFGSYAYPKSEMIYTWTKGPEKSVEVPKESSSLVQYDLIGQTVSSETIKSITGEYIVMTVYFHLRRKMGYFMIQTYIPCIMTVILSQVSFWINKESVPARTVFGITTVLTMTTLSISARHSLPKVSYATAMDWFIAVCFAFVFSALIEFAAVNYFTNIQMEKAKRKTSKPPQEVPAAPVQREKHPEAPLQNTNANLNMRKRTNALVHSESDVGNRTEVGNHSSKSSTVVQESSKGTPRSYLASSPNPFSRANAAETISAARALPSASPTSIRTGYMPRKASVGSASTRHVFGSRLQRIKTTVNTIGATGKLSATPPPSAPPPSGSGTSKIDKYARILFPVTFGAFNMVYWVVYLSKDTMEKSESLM
T1 sequence (P28472 26-473): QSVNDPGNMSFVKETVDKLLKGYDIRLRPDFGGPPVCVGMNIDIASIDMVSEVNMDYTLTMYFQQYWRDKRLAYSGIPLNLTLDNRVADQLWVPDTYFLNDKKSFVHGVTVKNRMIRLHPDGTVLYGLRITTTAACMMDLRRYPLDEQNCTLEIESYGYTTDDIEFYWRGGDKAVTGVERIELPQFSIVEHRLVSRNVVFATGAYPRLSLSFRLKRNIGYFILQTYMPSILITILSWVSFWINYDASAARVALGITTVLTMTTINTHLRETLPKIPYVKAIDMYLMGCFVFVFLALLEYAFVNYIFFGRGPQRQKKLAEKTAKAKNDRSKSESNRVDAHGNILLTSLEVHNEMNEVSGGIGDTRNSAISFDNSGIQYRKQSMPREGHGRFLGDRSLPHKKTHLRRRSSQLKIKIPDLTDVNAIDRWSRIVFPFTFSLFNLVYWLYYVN
T1 sequence (O14764 25-452 partner): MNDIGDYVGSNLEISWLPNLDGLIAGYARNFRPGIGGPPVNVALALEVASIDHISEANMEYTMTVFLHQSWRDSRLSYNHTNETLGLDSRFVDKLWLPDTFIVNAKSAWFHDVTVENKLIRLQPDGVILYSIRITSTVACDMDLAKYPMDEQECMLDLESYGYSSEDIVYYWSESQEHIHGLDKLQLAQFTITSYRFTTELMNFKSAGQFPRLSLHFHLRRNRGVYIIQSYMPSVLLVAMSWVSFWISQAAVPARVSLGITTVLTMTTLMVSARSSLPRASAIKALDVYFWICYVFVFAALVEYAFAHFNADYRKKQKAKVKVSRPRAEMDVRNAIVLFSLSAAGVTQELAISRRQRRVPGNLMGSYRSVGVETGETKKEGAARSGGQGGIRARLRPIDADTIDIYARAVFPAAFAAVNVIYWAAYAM

Row | Structure (SMILES) | side effects compared to the positive drug [1] | Gait, Number ([1]; 3mg/kg, the first day) | mobility, Number ([1]; 3mg/kg, the first day) | prone behavior, Number ([1]; 3mg/kg, the first day) | Gait, Number ([1]; 3mg/kg, the forth day) | mobility, Number ([1]; 3mg/kg, the forth day) | prone behavior, Number ([1]; 3mg/kg, the forth day) | Gait, Number ([1]; 3mg/kg, the second day) | mobility, Number ([1]; 3mg/kg, the second day) | prone behavior, Number ([1]; 3mg/kg, the second day) | Gait, Level ([1]; 3mg/kg, the third day) | Gait, Number ([1]; 3mg/kg, the third day) | mobility, Number ([1]; 3mg/kg, the third day) | prone behavior, Number ([1]; 3mg/kg, the third day) | EC50 [2, 3] [nM] | Emax [2, 4] [%] | Emax [2, 5] [%] | Gait, Level ([1]; 3mg/kg, the first day) | mobility, Level ([1]; 3mg/kg, the first day) | Gait, Level ([1]; 3mg/kg, the forth day) | further results
1 | C[C@]12CC[C@@H](O)C[C@@H]1CC[C@@H]1[C@@H]2CC[C@]2(C)[C@@H](C(=O)Cn3ncnn3)CCC[C@@H]12 [KH004] | less side effects | 0 | 0 | 0 | 0 | 0 | 0 | 0 | 0 | 0 | + | 1 | 0 | 0 | 135 | 172 | 158 |  |  |  | EC50 ([2]; without GABA, read-out: EC50 (without GABA)): 172 nM
2 | C[C@@]1(O)CC[C@@]2(C)[C@@H](CC[C@@H]3[C@@H]2CC[C@]2(C)[C@@H](C(=O)Cn4ncnn4)CCC[C@@H]32)C1 [KH022] | less side effects | 3 | 1 | 0 | 3 | 1 | 0 | 2 | 0 | 0 | + | 1 | 0 | 0 | 386 | 88.6 | 45.8 | + | ++ | + | mobility, Level ([1]; 3mg/kg, the forth day): +; Gait, Level ([1]; 3mg/kg, the second day): +
3 | C[C@@]1(O)CC[C@H]2[C@H](CC[C@@H]3[C@@H]2CC[C@]2(C)[C@@H](C(=O)Cn4cc(C#N)cn4)CC[C@@H]32)C1 [The control, reference compound] |  | 7 | 3 | 2 | 9 | 5 | 0 | 6 | 0 | 0 | + | 8 | 4 | 0 |  | 149 | 114 | ++ | +++ (three “+” are the most severe, with time to resume normal action >60 minutes) | + | prone behavior, Level ([1]; 3mg/kg, the first day): +; mobility, Level ([1]; 3mg/kg, the forth day): +; Gait, Level ([1]; 3mg/kg, the second day): ++; mobility, Level ([1]; 3mg/kg, the third day): ++; EC50 ([2]; EC50 (with 10 nM GABA), with 10 nM GABA): 219 nM
